In the first assay the target is T1, human Hv1 channel (Homo sapiens, UniProt Q96D96).
T1 construct: expressed in transfected cells; host or cells: Xenopus oocytes (cRNA injection, pGEMHE vector)
T1 sequence (Q96D96 1-273): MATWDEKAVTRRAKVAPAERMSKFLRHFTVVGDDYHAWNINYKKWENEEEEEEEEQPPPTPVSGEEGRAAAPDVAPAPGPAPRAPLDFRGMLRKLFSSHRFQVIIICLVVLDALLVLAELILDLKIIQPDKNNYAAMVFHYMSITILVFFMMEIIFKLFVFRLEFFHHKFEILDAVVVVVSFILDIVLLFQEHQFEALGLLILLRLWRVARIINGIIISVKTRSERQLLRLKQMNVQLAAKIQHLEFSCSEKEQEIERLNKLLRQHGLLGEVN
Kind of assay: Patch-clamp assay of Hv1 proton transport inhibition in Xenopus oocytes expressing human Hv1. The class given is cell-based. The note with it: 4 μM. As to the method: Plasmids were linearized with either NheI or SphI restriction enzymes (New England Biolabs) before in vitro transcription. RNA synthesis was carried out with a T7 mMessage mMachine transcription kit (Ambion). […] The linearized plasmid was transcribed with SP6 RNA polymerase. cRNAs were injected in Xenopus oocytes (50 nl per cell, 0.3-1.5 μg/μl) 1-3 days before the electro-physiological measurements. Cells were kept at 18° C. in ND96 medium containing 96 mM NaCl, 2 mM KCl, 1.8 mM CaCl2, 1 mM MgCl2, 10 mM HEPES, 5 mM pyruvate, 100 μg/ml gentamycin (pH 7.2).
The bath solution contained 100 mM 2-(N-morpholino)ethanesulphonic acid (MES), 30 mM tetraethylammonium (TEA) methanesulfonate, 5 mM TEA chloride, 5 mM ethyleneglycol-bis(2-ami-noethyl)-N,N,N0,N0-tetra-acetic acid (EGTA), adjusted to pH 6.0 with TEA hydroxide. For recordings carried out in the absence of pH gradient (pHi=pHo=6.0), the pipette solution had the same composition of the bath solution. Some of the measurements were performed in the presence of a pH gradient (pHi=6.0, pHo=7.5). In these cases the extracellular solution contained 100 mM 4-(2-hydroxyethyl)-1-piperazineethanesulfonic acid (HEPES), 40 mM TEA methanesulfonate, 5 mM TEA chloride, adjusted to pH 7.5 with TEA hydroxide. Native proton currents in BV-2, RAW264.7, and THP-1 were measured in whole-cell configuration with an intracellular solution containing: 90 mM TEA methanesulfonate, 100 mM MES, 2 mM MgCl2, 2 mM EGTA, adjusted to pH 6.0 with TEA hydroxide. The extracellular solution contained: 85 mM TEA methanesulfonate, 100 mM HEPES, 3 mM CaCl2, 1 mM EGTA, adjusted to pH 7.5 with TEA hydroxide. All measurements were performed at 22° C.±2° C. Pipettes had 2-4 M access resistance. Current traces were filtered at 1 kHz, sampled at 5 kHz and analyzed with Clampfit10.2 (Molecular Devices) and Origin8.1 (OriginLab).
Take `N=C(N)Nc1nc2ccc([N+](=O)[O-])cc2[nH]1` [5-nitro-2-guanidinobenzimidazole]: 4 µM produced 57 ± 10% inhibition.

Still in this assay, the particulars now being: 40 μM.
`Nc1nnc(Nc2ccc(Cl)cc2)[nH]1` [N(3)-(4-chlorophenyl)-4H-1,2,4-triazole-3,5-diamine]: 40 µM produced 28 ± 7% inhibition.

The same assay, now with this note: 200 μM.
`N=C(N)Nc1nc2ccccc2o1` [1-(1,3-benzoxazol-2-yl)guanidine] returned an inhibition at 200 µM of 1 ± 1%.

The compound `CN(C)C(=N)NC(=N)N` [1,1-dimethylbiguanide] showed an inhibition at 200 µM of 6.8 ± 2.25%.

The compound `Nc1ncc[nH]1` [2-aminoimidazole] had an inhibition at 200 µM of 21.2 ± 5.1%.

On to `Cc1nc(NC(=N)N)nc2ccccc12` [2-guanidino-4-methylquinazoline], for which the inhibition at 200 µM was determined as 31.7 ± 0.7%.

As to `COc1ccc(CCN2CCC(Nc3nc4ccccc4n3Cc3ccc(F)cc3)CC2)cc1` [1-[(4-fluorophenyl)methyl]-N-[1-[2-(4-methoxyphenyl)ethyl]-4-piperidylibenzoimidazol-2-amine], the “Hv1 proton transport % inhibition” value was 67 ± 6%.

As to `N=C(N)NCCCCN` [agmatine], the inhibition at 200 µM was determined as 18.5 ± 1.5%.

In the case of `CCOC(=O)c1nc(NC(=N)N)sc1C` [ethyl 2-[[amino(imino)methyl]amino]-5-methyl-1,3-thiazole-4-carboxylate], the inhibition at 200 µM came to 39.4 ± 3.4%.

Take `N=C(N)Nc1nc2ccccc2[nH]1` [2-guanidinobenzimidazole]: the inhibition at 200 µM was determined as 82.6 ± 2.25%.

`CC(=O)N(C(=N)NC(=N)N)c1ccccc1` [N-(guanidino-iminomethyl)-N-phenylacetamide] registered an inhibition at 200 µM of 0.5 ± 1%.

As for `NC(N)=Nc1nc(CSCCC(N)=NS(N)(=O)=O)cs1` [3-([2-(diaminomethyleneamino)thiazol-4-yllmethylthio)-N′-sulfamoylpropanimidamide], the “Hv1 proton transport % inhibition” value is on record as 21.5 ± 2.7%.

Compound `CC(C)OC(=O)CCCCC(=NNC(=N)N)c1ccccc1` [isopropyl 6-(guanidinoimino)-6-phenylhexanoate] yielded an inhibition at 200 µM of 73 ± 3%.

With `CCOC(=O)Cc1sc(NC(=N)N)nc1C` [ethyl (2-[[amino(imino)methyl]amino1-4-methyl-1,3-thiazol-5-yl)acetate], the “Hv1 proton transport % inhibition” value worked out at 68.2 ± 2.2%.

On to `N=C(N)Nc1nc2ccccc2s1` [1-(1,3-benzothiazol-2-yl)guanidine], for which testing at 200 µM gave an inhibition of 81%.

Turning to `Nc1nc2ccccc2[nH]1` [2-aminobenzimidazole], testing at 200 µM gave an inhibition of 29.8 ± 2.5%.

`CCOC(=O)c1sc(NC(=N)N)nc1C` [ethyl 2-[[amino(imino)methyl]amino]-4-methyl-1,3-thiazole-5-carboxylate] returned an inhibition at 200 µM of 31%.

Take `N=C(N)NN` [aminoguanidine, amino-guanidine]: at 200 µM the inhibition was 4.3 ± 2.3%.

Take `Nc1ncccn1` [2-aminopyrimidine]: the inhibition at 200 µM stood at 2 ± 1%.

The assay is the same for the next values; noted with them: 600 μM.
As to `CN1CC(=O)NC1=N` [Creatinine, reference compound], the “Hv1 proton transport % inhibition” value was determined as 0%.

The inhibition is the change of the read-out against control, counted positive when it falls. A lower inhibition goes with little suppression.

The values above are taken from patent US20150203812A1, “Inhibitors of Voltage Gated Ion Channels” (priority 2014, published 2015).
